Assay results reported in article PMC9246773, “Assessing the Activity of Antimicrobial Peptides Against Common Marine Bacteria Located in Rotifer (Brachionus plicatilis) Cultures” (Probiotics and Antimicrobial Proteins, 2022).
No end group written: not given here.

Experiments:
Type in all cases: cell-based
[1] = test system: Vibrio harveyi (ATCC 35084); conditions: ATCC 35084, 48 h
Experimental: (§1) A range of bacterial species with the potential to be transferred to developing fish larvae as pathogens or probiotics were selected for use in the study (Table 2). Bacterial isolates were stored at −80 °C and thawed, and 25 µL of the isolates was spread onto marine salt agar (MSA) media. All isolates were incubated at 25 °C for 18 h to reach mid-log growth phase. All isolates were sub-cultured and identified using mass spectrometry (MALDI-TOF) using the BioTyper and MBT 8468 library (Bruker Pty Ltd). The isolate Tenacibaculum discolor was plated on Anacker and Oradal’s marine (AOM) media, incubated for 48 h and identified using the aforementioned method. Bacterial isolates were suspended in sterile saline (0.75% NaCl w/v) to 0.5 McFarland standard. […] The bacterial isolates T. discolor and Pseudoalteromonas sp. require marine salts to grow and were not added to MHB (0‰). The isolate T. discolor requires low nutrients to grow, therefore, a separate MHB (25‰) was prepared at a diluted ratio of 1 part MHB and 7 parts artificial seawater (25‰).
(§2) The protocol was followed to determine the minimum inhibitory concentration (MIC) of the selected peptides. Two MIC assays were performed, firstly to determine whether each peptide precipitated in MHB and thereby required acetic acid adjustments (supplementary materials) and secondly, to determine the antimicrobial activity of each peptide in artificial seawater (25‰). Peptide stock solutions (1.3 mg mL^−1) were made by diluting the peptides in sterile deionised water. MHB was made with deionised water to reach a concentration of approaching 0‰ and artificial sea salts (Sigma-Aldrich® S9883) to reach a salinity of 25‰.
(§3) A broth microdilution protocol was followed to test whether the AMPs precipitated in MHB. The isolates T. discolor and Pseudoalteromonas were excluded from this assay because they required marine salts for growth. The peptides HHC10 and HHC36 previously required acetic acid adjustments according to [63] and were not trialled in this assay. To test if peptides required acetic acid, each peptide was diluted 1:2 in acetic acid (0.02% acetic acid w/v, containing 0.4% BSA) solution. In a 96-well polypropylene microtitre plates (Costar® 3879), 100 µL of this peptide stock was added to the first well for each bacterial isolate tested and serially diluted 2-fold with acetic acid (0.01% acetic acid w/v, containing 0.2% BSA). From each well, 10 µL of each peptide concentration was added to the corresponding wells of a new 96-well microtitre plate. From each of the bacterial suspensions in MHB (0‰), 90 µL was added to each well. […] From each of the bacterial suspensions in MHB (0‰), 50 µL was added to each well. All peptide concentrations ranged from 0.125 - 65µg mL^-1 and the bacterial suspension in each well was approximately 5 × 10^5 CFU mL^-1. Antimicrobial peptides that have an MIC value two or more dilutions higher in the assay with no acetic acid, compared to the assay with acetic acid, require acetic acid adjustments. The 96-well plates were incubated at 25 °C and read at 24 and 48 hours. The MIC was visually determined using a Sensititre™ Vizion™ Digital MIC Viewing System (Thermo Scientific™), and the lowest AMP concentration that had no bacterial growth was recorded as the MIC after 48 hours. Each bacterium was trialled in duplicate.

[2] = test system: Vibrio rotiferianus; conditions: 48 h
Experimental: as §1, §2, §3

[3] = test system: Vibrio harveyi; conditions: 48 h
Experimental: as §1, §2, §3

[4] = test system: Vibrio scophthalmi; conditions: 48 h
Experimental: as §1, §2, §3

[5] = test system: Shewanella sp.; conditions: 48 h
Experimental: as §1, §2, §3

[6] = test system: Escherichia coli (ATCC 25922); conditions: ATCC 25922, 48 h
Experimental: as §1, §2, §3

[7] = test system: Vibrio alginolyticus; conditions: 48 h
Experimental: as §1, §2, §3

[8] = test system: bacterial isolates; conditions: 48 h
Experimental: as §1, §2
Once the acetic acid requirement for each peptide was determined (Table 3), the antimicrobial activity of each peptide was tested at a salinity of 0‰ and 25‰ for all bacterial isolates. A stock solution for peptides that required acetic acid was prepared by a 1:2 dilution in acetic acid (0.02% acetic acid w/v, containing 0.4% BSA) solution. In a 96-well polypropylene microtitre plates (Costar® 3879), 100 µL of this peptide stock was added to the first well for each bacterial isolate tested and serially diluted twofold with acetic acid (0.01% acetic acid w/v, containing 0.2% BSA). From each well, 10 µL of each peptide concentration was added to the corresponding wells of a new 96-well microtitre plate. From each of the bacterial suspensions (0‰), 90 µL was added to each well. […] Twofold serial dilutions were made with MHB (0‰). From each of the bacterial suspensions (0‰), 50 µL was added to each well. The same method was followed for testing peptides in MHB at 25‰. All peptide concentrations ranged from 0.125 to 65 µg mL^−1, and the bacterial suspension in each well was approximately 5 × 10^5 CFU mL^−1. […]

[9] = test system: Vibrio harveyi (ATCC 35084); conditions: ATCC 35084, 48 h; remark: listed apart in the source
Experimental: as §1, §2
(§4) Once the acetic acid requirement for each peptide was determined (Table 3), the antimicrobial activity of each peptide was tested at a salinity of 0‰ and 25‰ for all bacterial isolates. A stock solution for peptides that required acetic acid was prepared by a 1:2 dilution in acetic acid (0.02% acetic acid w/v, containing 0.4% BSA) solution. In a 96-well polypropylene microtitre plates (Costar® 3879), 100 µL of this peptide stock was added to the first well for each bacterial isolate tested and serially diluted twofold with acetic acid (0.01% acetic acid w/v, containing 0.2% BSA). From each well, 10 µL of each peptide concentration was added to the corresponding wells of a new 96-well microtitre plate. From each of the bacterial suspensions (0‰), 90 µL was added to each well. […] Twofold serial dilutions were made with MHB (0‰). From each of the bacterial suspensions (0‰), 50 µL was added to each well. The same method was followed for testing peptides in MHB at 25‰. All peptide concentrations ranged from 0.125 to 65 µg mL^−1, and the bacterial suspension in each well was approximately 5 × 10^5 CFU mL^−1. The different salinities were used to compare any differences in antimicrobial activity in 0‰ and 25‰ water. […] Each bacterium was trialled in duplicate.

[10] = test system: Vibrio rotiferianus; conditions: 48 h; remark: listed apart in the source
Experimental: as §1, §2, §4

[11] = test system: Tenacibaculum discolor; conditions: 48 h
Experimental: as §1, §2, §4

[12] = test system: Vibrio harveyi; conditions: 48 h; remark: listed apart in the source
Experimental: as §1, §2, §4

[13] = test system: Pseudoalteromonas sp.; conditions: 48 h
Experimental: as §1, §2, §4

[14] = test system: Vibrio scophthalmi; conditions: 48 h; remark: listed apart in the source
Experimental: as §1, §2, §4

[15] = test system: Shewanella sp.; conditions: 48 h; remark: listed apart in the source
Experimental: as §1, §2, §4

[16] = test system: Escherichia coli (ATCC 25922); conditions: ATCC 25922, 48 h; remark: listed apart in the source
Experimental: as §1, §2, §4

[17] = test system: Vibrio alginolyticus; conditions: 48 h; remark: listed apart in the source
Experimental: as §1, §2, §4

[18] = test system: bacterial isolates; conditions: 48 h; remark: listed apart in the source
Experimental: as §1, §2, §4

ILVRWIRWRIQW-NH2 [Peptide 3002]
MIC V. harveyi ATCC 35084, Acetic [1]: 4.06 µg/mL | MIC V. harveyi ATCC 35084, No acetic [1]: 2.03 µg/mL | MIC V. rotiferianus, Acetic [2]: 4.06 µg/mL | MIC V. rotiferianus, No acetic [2]: 2.03 µg/mL | MIC V. harveyi, Acetic [3]: 4.06 µg/mL | MIC V. harveyi, No acetic [3]: 2.03 µg/mL | MIC V. scophthalmi, Acetic [4]: 1.02 µg/mL | MIC V. scophthalmi, No acetic [4]: 0.51 µg/mL | MIC Shewanella sp., Acetic [5]: 8.13 µg/mL | MIC Shewanella sp., No acetic [5]: 4.06 µg/mL | MIC E. coli ATCC 25922, Acetic [6]: 8.13 µg/mL | MIC E. coli ATCC 25922, No acetic [6]: 16.25 µg/mL | MIC V. alginolyticus, Acetic [7]: 4.06 µg/mL | MIC V. alginolyticus, No acetic [7]: 2.03 µg/mL | MIC in low salt conditions (over the bacterial isolates) [8]: 1 to 10 µg/mL | MIC V. harveyi ATCC 35084, salinity 0‰ [9]: 8.13 µg/mL | MIC V. harveyi ATCC 35084, salinity 25‰ [9]: > 65 µg/mL | MIC V. rotiferianus, salinity 0‰ [10]: 8.13 µg/mL | MIC V. rotiferianus, salinity 25‰ [10]: > 65 µg/mL | MIC T. discolor, salinity 25‰ [11]: 32.5 µg/mL | MIC V. harveyi, salinity 0‰ [12]: 8.13 µg/mL | MIC V. harveyi, salinity 25‰ [12]: > 65 µg/mL | MIC Pseudoalteromonas sp., salinity 25‰ [13]: 65 µg/mL | MIC V. scophthalmi, salinity 0‰ [14]: 2.03 µg/mL | MIC V. scophthalmi, salinity 25‰ [14]: > 65 µg/mL | MIC Shewanella sp., salinity 0‰ [15]: 8.13 µg/mL | MIC Shewanella sp., salinity 25‰ [15]: > 65 µg/mL | MIC E. coli ATCC 25922, salinity 0‰ [16]: 65 µg/mL | MIC E. coli ATCC 25922, salinity 25‰ [16]: > 65 µg/mL | MIC V. alginolyticus, salinity 0‰ [17]: 8.13 µg/mL | MIC V. alginolyticus, salinity 25‰ [17]: > 65 µg/mL

RRQWRGWVRIWL-NH2 [Peptide 3005]
MIC V. harveyi ATCC 35084, Acetic [1]: 16.25 µg/mL | MIC V. harveyi ATCC 35084, No acetic [1]: 16.25 µg/mL | MIC V. rotiferianus, Acetic [2]: 4.06 µg/mL | MIC V. rotiferianus, No acetic [2]: 1.02 µg/mL | MIC V. harveyi, Acetic [3]: 4.06 µg/mL | MIC V. harveyi, No acetic [3]: 1.02 µg/mL | MIC V. scophthalmi, Acetic [4]: 1.02 µg/mL | MIC V. scophthalmi, No acetic [4]: 0.25 µg/mL | MIC Shewanella sp., Acetic [5]: 4.06 µg/mL | MIC Shewanella sp., No acetic [5]: 8.13 µg/mL | MIC E. coli ATCC 25922, Acetic [6]: > 65 µg/mL | MIC E. coli ATCC 25922, No acetic [6]: > 65 µg/mL | MIC V. alginolyticus, Acetic [7]: 4.06 µg/mL | MIC V. alginolyticus, No acetic [7]: 16.25 µg/mL | MIC V. harveyi ATCC 35084, salinity 0‰ [9]: 4.06 µg/mL | MIC V. harveyi ATCC 35084, salinity 25‰ [9]: > 65 µg/mL | MIC V. rotiferianus, salinity 0‰ [10]: 1.02 µg/mL | MIC V. rotiferianus, salinity 25‰ [10]: > 65 µg/mL | MIC T. discolor, salinity 25‰ [11]: > 65 µg/mL | MIC V. harveyi, salinity 0‰ [12]: 4.06 µg/mL | MIC V. harveyi, salinity 25‰ [12]: > 65 µg/mL | MIC Pseudoalteromonas sp., salinity 25‰ [13]: > 65 µg/mL | MIC V. scophthalmi, salinity 0‰ [14]: 0.13 µg/mL | MIC V. scophthalmi, salinity 25‰ [14]: 65 µg/mL | MIC Shewanella sp., salinity 0‰ [15]: 8.13 µg/mL | MIC Shewanella sp., salinity 25‰ [15]: 65 µg/mL | MIC E. coli ATCC 25922, salinity 0‰ [16]: 4.06 µg/mL | MIC E. coli ATCC 25922, salinity 25‰ [16]: > 65 µg/mL | MIC V. alginolyticus, salinity 0‰ [17]: 2.03 µg/mL | MIC V. alginolyticus, salinity 25‰ [17]: > 65 µg/mL

KKWQLLIKWKLR-NH2 [Peptide 3008]
MIC V. harveyi ATCC 35084, Acetic [1]: 16.25 µg/mL | MIC V. harveyi ATCC 35084, No acetic [1]: 16.25 µg/mL | MIC V. rotiferianus, Acetic [2]: 2.03 µg/mL | MIC V. rotiferianus, No acetic [2]: 1.02 µg/mL | MIC V. harveyi, Acetic [3]: 4.06 µg/mL | MIC V. harveyi, No acetic [3]: 4.06 µg/mL | MIC V. scophthalmi, Acetic [4]: 0.51 µg/mL | MIC V. scophthalmi, No acetic [4]: 1.02 µg/mL | MIC Shewanella sp., Acetic [5]: 8.13 µg/mL | MIC Shewanella sp., No acetic [5]: 16.25 µg/mL | MIC E. coli ATCC 25922, Acetic [6]: > 65 µg/mL | MIC E. coli ATCC 25922, No acetic [6]: > 65 µg/mL | MIC V. alginolyticus, Acetic [7]: 1.02 µg/mL | MIC V. alginolyticus, No acetic [7]: 2.03 µg/mL | MIC in artificial seawater (25‰) (over the bacterial isolates) [18]: 32.5 µg/mL | MIC V. harveyi ATCC 35084, salinity 0‰ [9]: 8.13 µg/mL | MIC V. harveyi ATCC 35084, salinity 25‰ [9]: > 65 µg/mL | MIC V. rotiferianus, salinity 0‰ [10]: 2.03 µg/mL | MIC V. rotiferianus, salinity 25‰ [10]: > 65 µg/mL | MIC T. discolor, salinity 25‰ [11]: > 65 µg/mL | MIC V. harveyi, salinity 0‰ [12]: 4.06 µg/mL | MIC V. harveyi, salinity 25‰ [12]: > 65 µg/mL | MIC Pseudoalteromonas sp., salinity 25‰ [13]: > 65 µg/mL | MIC V. scophthalmi, salinity 0‰ [14]: < 0.13 µg/mL | MIC V. scophthalmi, salinity 25‰ [14]: 32.5 µg/mL | MIC Shewanella sp., salinity 0‰ [15]: 16.25 µg/mL | MIC Shewanella sp., salinity 25‰ [15]: 32.5 µg/mL | MIC E. coli ATCC 25922, salinity 0‰ [16]: 8.13 µg/mL | MIC E. coli ATCC 25922, salinity 25‰ [16]: > 65 µg/mL | MIC V. alginolyticus, salinity 0‰ [17]: 2.03 µg/mL | MIC V. alginolyticus, salinity 25‰ [17]: > 65 µg/mL
